Source: patent publication US20260109684A1, “QUINOLINE COMPOUNDS AS MODULATORS OF RAGE ACTIVITY AND USES THEREOF” (NEW YORK UNIVERSITY, priority 2022, published 2026)

How the values were obtained:
[1] = system: Murine primary aortic smooth muscle cells (SMC); experiment: Murine primary aortic smooth muscle cell (SMC) migration, wounding assay; format: cell-based, mice; details: Mus musculus; inhibition of migration; compounds incubated 1.5 h, then CML-AGE (10 μg/ml) or PDGF-BB (10 ng/ml) for 4 h
Protocol: Murine SMCs were cultured from the aortas of 10-week old male mice as described in M. B. Manigrasso, J. Pan, V. Rai, J. Zhang, S. Reverdatto, N. Quadri, R. J. DeVita, R. Ramasamy, A. Shekhtman, A. M. Schmidt, Small Molecule Inhibition of Ligand-Stimulated RAGE-DIAPH1 Signal Transduction. Scientific reports 6, 22450 (2016). Wild-type murine aortic SMCs were isolated and used between passages 8 to 12. Migration in response to the RAGE ligand CML-AGE (CML, 10 μg/ml) or a general effector, not a RAGE ligand, PDGF-BB, 10 ng/ml (R&D systems) was assessed with a wounding assay as also described in M. B. Manigrasso, J. Pan, V. Rai, J. Zhang, S. Reverdatto, N. Quadri, R. J. DeVita, R. Ramasamy, A. Shekhtman, A. M. Schmidt, Small Molecule Inhibition of Ligand-Stimulated RAGE-DIAPH1 Signal Transduction. Scientific reports 6, 22450 (2016). Briefly, cells were grown to confluence in 24-well plates and starved overnight. The following morning, serum free media (SFM) was removed and compounds were added per dose response. Immediately following the addition of compounds, the monolayer was wounded using a p10 pipette tip. The compounds were allowed to incubate for 1.5 h. Following this incubation, all compounds were removed and fresh media containing RAGE ligand, CML-AGE (10 μg/ml), or general effector, PDGF-BB (10 ng/ml), was added for 4 h. Cells were maintained at 37° C. and 5% CO2. Images were taken at 4 h. Each image was measured, and an area ingrowth of effective migrating cells was calculated. Results are shown in FIGS. 12-20 and Table 2 below.

[2] = molecular target: T1, ctRAGE (Homo sapiens, UniProt Q15109); experiment: Fluorescence binding titration assay (native tryptophan fluorescence); details: 20 nM ctRAGE, 10 mM phosphate buffer pH 7.0, 5% DMSO
T1 construct: The cytoplasmic domain of RAGE, C terminal RAGE or ctRAGE (RAGE tail)
T1 sequence (Q15109 364-404 limits assumed): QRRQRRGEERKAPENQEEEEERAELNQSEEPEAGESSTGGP
Protocol: Native tryptophan fluorescence experiments were conducted using a Horiba Jobin Yvon Fluorolog spectrofluorometer. 1 mM of a compound was dissolved in 10 mM phosphate buffer [pH 7.0] and 50% DMSO. 20 nM ctRAGE solution was individually titrated from 0.1 nM-100 μM with the compounds in 100 μL of 10 mM phosphate buffer [pH 7.0] and 5% DMSO. The excitation and emission wavelengths were 280 nm and 352 nm, respectively. Dissociation constants, Kd, were estimated from the changes in peak fluorescence intensities as a function of the free compound concentration by using Prism 6 software (GraphPad). Data were fit to the equation, (F−F0)/Fmax=[compound]/(Kd+[compound]) where F is the fluorescence intensity at a given compound concentration, F0 is the fluorescence intensity of the blank, and Fmax is the maximum fluorescence intensity.

[3] = system: ob ob mice; experiment: Wound healing of full thickness excisional wounds in ob ob mice; format: in vivo; details: male and female ob ob mice; 5 mg/kg twice daily topical, day 3 through day 10; days 14 and 21 post-surgery
Protocol: RAGE 406R was tested in male and female ob ob mice (model of obesity and type 2 diabetes) for potential benefits in wound healing. Full thickness excisional wounds were created on the backs of 8 week old ob ob mice, as described in Manigrasso et al., “Small-molecule antagonism of the interaction of the RAGE cytoplasmic domain with DIAPH1 reduces diabetic complications in mice,” Sci Transl Med. 13 (621):eabf7084 (2021). Beginning on day 3 after the surgery, mice received RAGE 406R (5 mg/kg) twice daily by topical administration under the Tegaderm through day 10 post-operatively. The wounds were photographed on days 0, 7, 14, and 21 and the % wound closure (compared to baseline) was calculated for each mouse. The Mean+/−Standard Error of the Mean is shown in FIGS. 23A-B along with representative images (FIGS. 23C-D).

Structure (SMILES)	IC50 [1] [nM]	Kd [2] [nM]	% wound closure compared to vehicle-treated animals [3]
N#Cc1ccc2c(CN3CCOCC3)cc(-c3ccc(C4CCC(=O)N4)cc3)nc2c1 (racemic) [RAGE 406]	28	3	
CC(=O)NCc1ccc(-c2cc(C(=O)N3CCOCC3)c3ccc(C#N)cc3n2)cc1 [RAGE 289, N-(4-(7-cyano-4-(morpholine-4-carbonyl)quinolin-2-yl)benzyl) acetamide]	18	3	
N#Cc1ccc2c(CN3CCOCC3)cc(-c3ccc(CN4CCCC4)cc3)nc2c1 [RAGE 401]	905		
N#Cc1ccc2c(CN3CCOCC3)cc(-c3ccc([C@H]4CCC(=O)N4)cc3)nc2c1 [RAGE 406R]	1	0.6	significantly higher wound closure
N#Cc1ccc2c(CN3CCOCC3)cc(-c3ccc([C@@H]4CCC(=O)N4)cc3)nc2c1 [RAGE 406S]	1160	2	
N#Cc1ccc2c(C(=O)N3CCOCC3)cc(-c3ccc(C4CCCN4)cc3)nc2c1 (centres unmarked) [RAGE 407]	153	2	

Further lines, with some results ahead:

IC50 [1] [nM]	Kd [2] [nM]	Structure (SMILES)	% wound closure compared to vehicle-treated animals [3]
2.6	1	N#Cc1ccc2c(CN3CCOCC3)cc(-c3ccc(C(N)=O)cc3)nc2c1 [RAGE 283]	
270	20	N#Cc1ccc2c(CN3CCOCC3)cc(-c3ccc(CN)cc3)nc2c1 [RAGE 286, 2-(4-(aminomethyl)phenyl)-4-(morpholinomethyl)quinoline-7-carbonitrile]	
6	1	N#Cc1ccc2c(CN3CCOCC3)cc(-c3ccc(C(=N)N)cc3)nc2c1 [RAGE 290]	
	12	N#Cc1ccc2c(CN3CCOCC3)cc(-c3ccc(CC(N)=O)cc3)nc2c1 [RAGE 291]	
93	8	CN(C)Cc1ccc(-c2cc(CN3CCOCC3)c3ccc(C#N)cc3n2)cc1 [RAGE 299]	
136	3	N#Cc1ccc2c(CN3CCOCC3)cc(-c3ccc(CCN)cc3)nc2c1 [RAGE 402, 2-(4-(2-aminoethyl)phenyl)-4-(morpholinomethyl)quinoline-7-carbonitrile]	
